# According to ChEMBL document CHEMBL5154835, “Design, synthesis and biological evaluation of sulfonamides inhibitors of XPO1 displaying activity against multiple myeloma cells” (Eur J Med Chem, 2022):
# Activity calls are given as the source filed them. No cut-off for these calls is given here.
# Experiments:
# MM1.S [1] = experiment: Antiproliferative activity against human MM1.S cells assessed as inhibition of cell growth incubated for 4 hrs by CCK-8 assay; assay type: functional, cell-based
# [2] = Half life in Sprague-Dawley rat at 10 mg/kg, IG measured upto 8 hrs by LC-MS/MS analysis; assay type: ADME, organism-based; conditions: in vivo, po
# [3] = Tmax in Sprague-Dawley rat at 1 mg/kg, iv measured upto 8 hrs by LC-MS/MS analysis; assay type: ADME, organism-based; conditions: in vivo
# MM1.S [4] = experiment: Induction of apoptosis in human MM1.S cells assessed as assessed as late apoptotic cells at 100 nM measured after 48 hrs by annexin V-FITC/PI staining based flow cytometry analysis (Rvb=2.06%); assay type: functional
# YT = experiment: Antiproliferative activity against human YT cells assessed as inhibition of cell growth incubated for 4 hrs by CCK-8 assay; assay type: functional, cell-based
# [5] = Tmax in Sprague-Dawley rat at 10 mg/kg, IG measured upto 8 hrs by LC-MS/MS analysis; assay type: ADME, organism-based; conditions: in vivo, po
# [6] = Antiproliferative activity against human MINO cells assessed as inhibition of cell growth incubated for 4 hrs by CCK-8 assay; assay type: functional, cell-based
# H9 = experiment: Antiproliferative activity against human H9 cells assessed as inhibition of cell growth incubated for 4 hrs by CCK-8 assay; assay type: functional, cell-based; conditions: H9, 4 h
# [7] = AUC (0 to t) in Sprague-Dawley rat at 10 mg/kg, IG measured upto 8 hrs by LC-MS/MS analysis; assay type: ADME, organism-based; parameters: time < 8 hrs, dose 10 mg/kg, route ig; conditions: in vivo, po
# MM1.S [8] = experiment: Induction of apoptosis in human MM1.S cells assessed as assessed as viable cells at 10000 nM measured after 48 hrs by annexin V-FITC/PI staining based flow cytometry analysis (Rvb=85.74%); assay type: functional; conditions: read-out: Activity
# MM1.S [9] = experiment: Induction of apoptosis in human MM1.S cells assessed as increase in apoptosis rate at 10 uM measured after 48 hrs by annexin V-FITC/PI staining based flow cytometry analysis (Rvb=6.7%); assay type: functional
# MM1.S [10] = experiment: Induction of apoptosis in human MM1.S cells assessed as assessed as necrotic cells at 100 nM measured after 48 hrs by annexin V-FITC/PI staining based flow cytometry analysis (Rvb=7.60%); assay type: functional
# MM1.S [11] = experiment: Induction of cell cycle arrest in human MM1.S cells assessed as accumulation at S phase at 100 nM incubated for 48 hrs by propidium iodide staining based flow cytometric analysis (reference value: 21.8%); assay type: functional
# MM1.S [12] = experiment: Induction of cell cycle arrest in human MM1.S cells assessed as accumulation at S phase at 10000 nM incubated for 48 hrs by propidium iodide staining based flow cytometric analysis (reference value: 21.8%); assay type: functional
# MM1.S [13] = experiment: Induction of apoptosis in human MM1.S cells assessed as assessed as early apoptotic cells at 100 nM measured after 48 hrs by annexin V-FITC/PI staining based flow cytometry analysis (Rvb=4.60%); assay type: functional
# [14] = Clearance in Sprague-Dawley rat at 10 mg/kg, IG measured upto 8 hrs by LC-MS/MS analysis; assay type: ADME, organism-based; conditions: in vivo, po
# MM1.S [15] = experiment: Induction of cell cycle arrest in human MM1.S cells assessed as p53-dependent accumulation of cells in G2 phase at 100 nM incubated for 48 hrs by propidium iodide staining based flow cytometric analysis (reference value: 18.4%); assay type: functional
# [16] = Cmax in Sprague-Dawley rat at 1 mg/kg, iv measured upto 8 hrs by LC-MS/MS analysis; assay type: ADME, organism-based; parameters: dose 1 mg/kg, time < 8 hrs, route iv; conditions: in vivo
# [17] = Antiproliferative activity against human VAL cells assessed as inhibition of cell growth incubated for 4 hrs by CCK-8 assay; assay type: functional, cell-based
# [18] = AUC (0 to t) in Sprague-Dawley rat at 1 mg/kg, iv measured upto 8 hrs by LC-MS/MS analysis; assay type: ADME, organism-based; parameters: time < 8 hrs, dose 1 mg/kg, route iv; conditions: in vivo
# [19] = Antiproliferative activity against human Rael cells assessed as inhibition of cell growth incubated for 4 hrs by CCK-8 assay; assay type: functional, cell-based
# MM1.S [20] = experiment: Induction of apoptosis in human MM1.S cells assessed as assessed as early apoptotic cells at 10000 nM measured after 48 hrs by annexin V-FITC/PI staining based flow cytometry analysis (Rvb=4.60%); assay type: functional
# [21] = Half life in Sprague-Dawley rat at 1 mg/kg, iv measured upto 8 hrs by LC-MS/MS analysis; assay type: ADME, organism-based; conditions: in vivo
# MM1.S [22] = experiment: Induction of apoptosis in human MM1.S cells assessed as assessed as early apoptotic cells at 1000 nM measured after 48 hrs by annexin V-FITC/PI staining based flow cytometry analysis (Rvb=4.60%); assay type: functional
# MM1.S [23] = experiment: Induction of cell cycle arrest in human MM1.S cells assessed as p53-dependent accumulation of cells in G2 phaseat 10000 nM incubated for 48 hrs by propidium iodide staining based flow cytometric analysis (reference value: 18.4%); assay type: functional
# [24] = Metabolic stability in rat liver microsomes assessed as compound remaining preincubated for 5 mins measured upto 60 mins in presence of NADPH by LC/MS analysis; assay type: ADME, Microsome; conditions: time < 65 min, read-out: Stability
# MM1.S [25] = experiment: Induction of apoptosis in human MM1.S cells assessed as assessed as late apoptotic cells at 10000 nM measured after 48 hrs by annexin V-FITC/PI staining based flow cytometry analysis (Rvb=2.06%); assay type: functional
# [26] = Antiproliferative activity against human JB-6 cells assessed as inhibition of cell growth incubated for 4 hrs by CCK-8 assay; assay type: functional, cell-based; conditions: JB6, 4 h
# MM1.S [27] = experiment: Induction of cell cycle arrest in human MM1.S cells assessed as p53-dependent accumulation of cells in G2 phase at 5000 nM incubated for 48 hrs by propidium iodide staining based flow cytometric analysis (reference value: 18.4%); assay type: functional
# MM1.S [28] = experiment: Induction of apoptosis in human MM1.S cells assessed as assessed as viable cells at 1000 nM measured after 48 hrs by annexin V-FITC/PI staining based flow cytometry analysis (Rvb=85.74%); assay type: functional; conditions: read-out: Activity
# MM1.S [29] = experiment: Induction of apoptosis in human MM1.S cells assessed as assessed as necrotic cells at 10000 nM measured after 48 hrs by annexin V-FITC/PI staining based flow cytometry analysis (Rvb=7.60%); assay type: functional
# MM1.S [30] = experiment: Induction of cell cycle arrest in human MM1.S cells assessed as accumulation at S phase at 5000 nM incubated for 48 hrs by propidium iodide staining based flow cytometric analysis (reference value: 21.8%); assay type: functional
# [31] = AUC (0 to infinity) in Sprague-Dawley rat at 10 mg/kg, IG measured upto 8 hrs by LC-MS/MS analysis; assay type: ADME, organism-based; parameters: dose 10 mg/kg, time < 8 hrs, route ig; conditions: in vivo, po
# MM1.S [32] = experiment: Induction of cell cycle arrest in human MM1.S cells assessed as accumulation at G1 phase at 5000 nM incubated for 48 hrs by propidium iodide staining based flow cytometric analysis (reference value: 59.8%); assay type: functional
# MM1.S [33] = experiment: Induction of cell cycle arrest in human MM1.S cells assessed as accumulation at G1 phase at 100 nM incubated for 48 hrs by propidium iodide staining based flow cytometric analysis (reference value: 59.8%); assay type: functional
# MM1.S [34] = experiment: Induction of cell cycle arrest in human MM1.S cells assessed as accumulation at G1 phase at 1000 nM incubated for 48 hrs by propidium iodide staining based flow cytometric analysis (reference value: 59.8%); assay type: functional
# [35] = Antiproliferative activity against human Mutu-1 cells assessed as inhibition of cell growth incubated for 4 hrs by CCK-8 assay; assay type: functional, cell-based; conditions: Mutu-1, 4 h
# [36] = Metabolic stability in rat plasma assessed as compound remaining measured upto 120 mins by LC/MS analysis; assay type: ADME, cell-free; conditions: read-out: Stability
# MM1.S [37] = experiment: Induction of cell cycle arrest in human MM1.S cells assessed as accumulation at G1 phase at 10000 nM incubated for 48 hrs by propidium iodide staining based flow cytometric analysis (reference value: 59.8%); assay type: functional
# [38] = AUC (0 to infinity) in Sprague-Dawley rat at 1 mg/kg, iv measured upto 8 hrs by LC-MS/MS analysis; assay type: ADME, organism-based; parameters: dose 1 mg/kg, time < 8 hrs, route iv; conditions: in vivo
# NAMALVA = experiment: Antiproliferative activity against human NAMALVA cells assessed as inhibition of cell growth incubated for 4 hrs by CCK-8 assay; assay type: functional, cell-based
# MM1.S [39] = experiment: Induction of cell cycle arrest in human MM1.S cells assessed as p53-dependent accumulation of cells in G2 phase at 1000 nM incubated for 48 hrs by propidium iodide staining based flow cytometric analysis (reference value: 18.4%); assay type: functional
# [40] = Clearance in Sprague-Dawley rat at 1 mg/kg, iv measured upto 8 hrs by LC-MS/MS analysis; assay type: ADME, organism-based; conditions: in vivo
# MM1.S [41] = experiment: Induction of apoptosis in human MM1.S cells assessed as assessed as necrotic cells at 1000 nM measured after 48 hrs by annexin V-FITC/PI staining based flow cytometry analysis (Rvb=7.60%); assay type: functional
# MM1.S [42] = experiment: Induction of apoptosis in human MM1.S cells assessed as assessed as late apoptotic cells at 1000 nM measured after 48 hrs by annexin V-FITC/PI staining based flow cytometry analysis (Rvb=2.06%); assay type: functional
# MM1.S [43] = experiment: Induction of cell cycle arrest in human MM1.S cells assessed as accumulation at S phase at 1000 nM incubated for 48 hrs by propidium iodide staining based flow cytometric analysis (reference value: 21.8%); assay type: functional
# MM1.S [44] = experiment: Induction of apoptosis in human MM1.S cells assessed as assessed as viable cells at 100 nM measured after 48 hrs by annexin V-FITC/PI staining based flow cytometry analysis (Rvb=85.74%); assay type: functional; conditions: read-out: Activity
# [45] = Cmax in Sprague-Dawley rat at 10 mg/kg, IG measured upto 8 hrs by LC-MS/MS analysis; assay type: ADME, organism-based; parameters: dose 10 mg/kg, time < 8 hrs, route ig; conditions: in vivo, po
# [46] = target: Exportin-1 (Homo sapiens) (UniProt O14980); experiment: Inhibition of XPO1 in human MM1.S cells at 0.1 to 10 uM incubated for 2 hrs by confocal microscopic analysis; assay type: cell-based; conditions: dose 0.1-10 µM
# [47] = Bioavailability in Sprague-Dawley rat at 10 mg/kg, IG measured upto 8 hrs by LC-MS/MS analysis; assay type: ADME, organism-based; conditions: in vivo, po
# Chain of Exportin-1 (Homo sapiens) (O14980 whole entry): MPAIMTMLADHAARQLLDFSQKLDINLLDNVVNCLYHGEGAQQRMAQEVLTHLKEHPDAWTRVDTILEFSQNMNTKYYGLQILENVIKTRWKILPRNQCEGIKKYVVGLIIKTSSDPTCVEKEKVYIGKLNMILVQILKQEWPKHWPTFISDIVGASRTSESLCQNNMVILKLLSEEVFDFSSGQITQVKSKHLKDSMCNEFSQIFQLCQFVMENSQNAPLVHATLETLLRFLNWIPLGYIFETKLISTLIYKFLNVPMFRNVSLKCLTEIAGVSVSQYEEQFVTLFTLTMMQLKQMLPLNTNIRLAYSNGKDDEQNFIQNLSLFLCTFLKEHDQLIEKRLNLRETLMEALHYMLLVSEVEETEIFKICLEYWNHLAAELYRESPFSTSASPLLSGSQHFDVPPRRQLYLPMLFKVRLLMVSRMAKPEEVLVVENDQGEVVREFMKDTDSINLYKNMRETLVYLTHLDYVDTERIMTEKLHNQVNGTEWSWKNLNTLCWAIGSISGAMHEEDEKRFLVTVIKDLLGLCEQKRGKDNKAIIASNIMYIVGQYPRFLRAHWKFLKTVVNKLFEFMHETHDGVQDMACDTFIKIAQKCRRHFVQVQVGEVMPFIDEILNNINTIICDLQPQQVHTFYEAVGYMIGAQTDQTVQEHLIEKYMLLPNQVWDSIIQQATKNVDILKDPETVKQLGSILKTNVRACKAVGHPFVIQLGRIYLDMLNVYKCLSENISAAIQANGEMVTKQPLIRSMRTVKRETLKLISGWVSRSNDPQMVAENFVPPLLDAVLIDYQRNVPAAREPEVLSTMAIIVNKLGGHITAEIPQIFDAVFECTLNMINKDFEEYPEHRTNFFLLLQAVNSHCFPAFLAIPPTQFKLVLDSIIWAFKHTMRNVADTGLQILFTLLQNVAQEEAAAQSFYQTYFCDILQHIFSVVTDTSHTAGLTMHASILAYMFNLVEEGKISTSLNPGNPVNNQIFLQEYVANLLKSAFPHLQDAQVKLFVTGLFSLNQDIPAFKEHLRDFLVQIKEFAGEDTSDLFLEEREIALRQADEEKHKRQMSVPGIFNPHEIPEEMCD
smiles,measurement,setting,value
NC(=O)/C(=C/n1cnc(-c2cc(C(F)(F)F)cc(C(F)(F)F)c2)n1)c1ccc(C(F)(F)F)nc1,IC50,MM1.S [1],363 nM
NC(=O)/C(=C/n1cc(F)c(-c2cc(C(F)(F)F)cc(C(F)(F)F)c2)n1)c1cncnc1,IC50,MM1.S [1],713 nM
CS(=O)(=O)Nc1ccc(/C(=C\n2cnc(-c3cc(C(F)(F)F)cc(C(F)(F)F)c3)n2)C(N)=O)cc1,half-life,[2],2.12 h
same,Tmax,[3],4.8 min
same,Activity,MM1.S [4],6.35%
same,IC50,YT,75.4 nM
same,Tmax,[5],2.17 h
same,IC50,[6],80.2 nM
same,IC50,H9,101 nM
same,AUC(0-t) at 8 h,[7],5770 ng·h/mL
same,viability at 10 µM,MM1.S [8],28%
same,Activity,MM1.S [9],64.7%
same,Activity,MM1.S [10],6.94%
same,Activity,MM1.S [11],15.4%
same,Activity,MM1.S [12],11.5%
same,Activity,MM1.S [13],11.27%
same,CL/F,[14],27.3 mL/min/kg
same,Activity,MM1.S [15],21.3%
same,Cmax,[16],1240 ng/mL
same,IC50,[17],189 nM
same,AUC(0-t) at 8 h,[18],1670 ng·h/mL
same,IC50,MM1.S [1],24 nM
same,IC50,[19],202 nM
same,Activity,MM1.S [20],27.36%
same,half-life,[21],2.32 h
same,Activity,MM1.S [22],26.42%
same,Activity,MM1.S [23],36.4%
same,remaining at 1 h,[24],85%
same,Activity,MM1.S [25],37.33%
same,IC50,[26],154 nM
same,Activity,MM1.S [27],37.3%
same,viability at 1 µM,MM1.S [28],46.5%
same,Activity,MM1.S [29],7.34%
same,Activity,MM1.S [30],10.2%
same,AUC(0-inf),[31],6390 ng·h/mL
same,Activity,MM1.S [32],52.6%
same,Activity,MM1.S [33],63.4%
same,Activity,MM1.S [34],48.3%
same,IC50,[35],158 nM
same,remaining at 2 h,[36],80%
same,Activity,MM1.S [37],52.1%
same,AUC(0-inf),[38],1790 ng·h/mL
same,IC50,NAMALVA,77.7 nM
same,Activity,MM1.S [39],33.4%
same,clearance,[40],9.42 mL/min/kg
same,Activity,MM1.S [41],6.61%
same,Activity,MM1.S [42],20.49%
same,Activity,MM1.S [43],18.3%
same,viability at 0.1 µM,MM1.S [44],75.4%
same,Cmax,[45],1390 ng/mL
same,inhibition,[46],Active
same,bioavailability,[47],34.6%
NC(=O)/C(=C/n1cnc(-c2cc(C(F)(F)F)cc(C(F)(F)F)c2)n1)c1cccnc1F,IC50,MM1.S [1],359 nM
NC(=O)/C(=C/n1cnc(-c2cc(C(F)(F)F)cc(C(F)(F)F)c2)n1)c1cc(F)c(F)c(F)c1,IC50,MM1.S [1],2430 nM
NC(=O)/C(=C/n1cc(Cl)c(-c2cc(C(F)(F)F)cc(C(F)(F)F)c2)n1)c1cncnc1,IC50,MM1.S [1],2240 nM
CN(C)C(=O)/C(=C/n1cnc(-c2cc(C(F)(F)F)cc(C(F)(F)F)c2)n1)c1ccc(NS(C)(=O)=O)cc1,IC50,MM1.S [1],8960 nM
